In patent US5175162A, “Thiophene compounds and their pharmaceutical uses” (Yoshitiomi Pharmaceutical Industries Ltd., priority 1989, dated 1992):

What was measured:
[1] = Effects on seizure induced by maximal electroshock (anti-MES action); assay type: in vivo, male ddY mice; settings: 1 hour before MES
Method: The test was carried out using groups of five male ddY mice. The animals were challenged with a maximal electroshock (MES, AC 2000 V, 12.5 mA, 0.2 sec) delivered through bilatesal corneal electrodes 1 hour after the oral or intraperitoneal administration of the test compounds. Antagonism of MES-induced seizure was defined as the absence of the tonic extention.

[2] = target: benzodiazepine receptors; test: 3H-diazepam (3H-DZP) binding assay, displacement at benzodiazepine receptors; parameters: species or system Wistar rats (cerebral cortex); settings: tritiated diazepam 2 nM, 0° C., 20 min; read-out: Affinity for BZP receptors Ki
Method: ^3 H-DZP binding assay was carried out according to the previously described method in Life Science, vol. 20, 2101 (1977).
The crude cynaptosomal fraction prepared from the cerebral cortex of Wistar rats aged 9-10 weeks was suspended in 50 mM Tris-hydrochloric acid buffer (pH 7.4) containing 120 mM sodium chloride and 5 mM potassium chloride. These suspensions were used for the following experiment.
The reaction was started by the addition of synaptosomal suspension to the solution containing tritiated diazepam (final concentration is 2 nM) and a known concentration of test compounds at 0° C. for 20 min. The binding was stopped by the filtration under vacuum through Whatman GF/B filters and the filters were immediately washed with the above-mentioned buffer. The radioactivity on the filters was measured by a liquid scintillation counter.
The binding affinities of the compound of the present invention for benzodiazepine receptors are evaluated from its displacement ability for tritiated diazepam at its binding site, which is represented as Ki value (nM).

[3] = Anti-bicuculline action; assay type: in vivo, male ddY mice; settings: Mus musculus; (+) bicuculline 0.6 mg/kg i.v. 1 hour after oral administration; prevention of tonic extention; read-out: Antibicuculline effect ED50
Method: The anti-bicuculline action of the test compounds was done according to the method reported in Life Science, vol. 21, 1779 (1977).
The test was carried out using groups of 7-14 male ddY mice weighing 20-25 g. The animals were challenged with (+) bicuculline (0.6 mg/kg i.v.) 1 hour after the oral administration of the test compounds. The ED50 values were calculated by the probit method as the dose which prevent the tonic extention in half of the animals.

[4] = tested on: benzodiazepine receptors; settings: U.S. Pat. No. 4,849,421; cited from earlier work
[5] = Antianxiety effect (Vogel type conflict test); assay type: in vivo, Wistar rats; settings: Rattus norvegicus, po; orally 1 hr before test; P<0.05 vs 0.5% MC control; read-out: Antianxiety effect MED (minimum effective dose)
Description: The experimental procedure used modified the method of Vogel et al (1971). Wistar rats were used. They were deprived of water for 72 hr before the test. The rats were placed in a plexiglas conflict test box (light compartment: 38×38×20 cm, dark compartment: 10×10×20 cm). A water bottle with a stainless steel spout was fitted to the middle of the outside, so that the spout extended 3 cm into the box at a height of 10 cm above the grid floor. A drinkometer circuit (Ohara Inc., Nihon Koden) was connected with the spout and the number of licks were counted. The rat was placed into the apparatus where an electric shock (0.2-0.3 mA, 0.3 sec) was given once every 20th lick. After the rat received the first electric shock, the number of shocks were recorded during the subsequent 3 min test period. The test compounds were administered orally 1 hr before the test. The minimum effective dose (MED) was defined as the lowest dose producing a statistically significant difference between 0.5% MC-treated (control) and test drug treated punished responses (One-way ANOVA test; P<0.05).

| SMILES | Inhibitory rate (anti-MES) ([1]; 30 mg/kg i.p.) [%] | Ki [2] [nM] | ED50 [3] [mg/kg] | other results |
| --- | --- | --- | --- | --- |
| CCCc1cc2c(s1)SCCc1cc(=O)n(-c3ccc(Cl)cc3)nc1-2 [Example 69, 2-(4-Chlorophenyl)-9-propyl-5,6-dihydrothieno[2',3':2,3]thiepino[4,5-c]pyridazin-3(2H)-one] | 80 | – | – | – |
| O=c1cc2c(nn1-c1ccc(Cl)cc1)-c1cc(Br)sc1[S+]([O-])CC2 (centres unmarked) [Example 26, 9-bromo-2-(4-chlorophenyl)-5,6-dihydrothieno[2',3':2,3]thiepino[4,5-c]pyridazin-3(2H)-one 7-oxide] | – | 1.4 | 0.56 | – |
| CCCc1cc2c(s1)S(=O)(=O)CCc1cc(=O)n(-c3ccc(Cl)cc3)nc1-2 [Example 71, 2-(4-Chlorophenyl)-9-propyl-5,6-dihydrothieno[2',3':2,3]thiepino[4,5-c]pyridazin-3(2H)-one 7,7-dioxide] | 100 | – | – | – |
| O=c1cc2c(nn1-c1ccc(Cl)cc1)-c1ccccc1SCC2 [2-(4-chlorophenyl)-5,6-dihydro[1]benzothiepino[5,4-c]pyridazin-3(2H)-one] | – | – | – | activity against BZP receptors [4]: partial agonistic activity |
| CCc1cc2c(s1)[S+]([O-])CCc1cc(=O)n(-c3ccc(Cl)cc3)nc1-2 (centres unmarked) [Example 25, 2-(4-chlorophenyl)-9-ethyl-5,6-dihydrothieno[2',3':2,3]thiepino[4,5-c]pyridazin-3(2H)-one 7-oxide] | 80 | 1.4 | 0.66 | – |
| O=c1cc2c(nn1-c1ccc(Cl)cc1)-c1cc(Br)sc1S(=O)(=O)CC2 [Example 65, 9-Bromo-2-(4-chlorophenyl)-5,6-dihydrothieno[2',3':2,3]thiepino[4,5-c]pyridazin-3(2H)-one 7,7-dioxide] | – | 0.12 | 1.4 | – |
| CCc1cc2c(s1)S(=O)(=O)CCc1cc(=O)n(-c3ccc(OC)cc3)nc1-2 [Example 64, 9-Ethyl-2-(4-methoxyphenyl)-5,6-dihydrothieno[2',3':2,3]thiepino[4,5-c]pyridazin-3(2H)-one 7,7-dioxide] | – | 0.44 | 1.4 | – |
| CCc1cc2c(s1)S(=O)(=O)CCc1cc(=O)n(-c3ccc(Cl)cc3)nc1-2 [Example 28, 2-(4-Chlorophenyl)-9-ethyl-5,6-dihydrothieno[2',3':2,3]thiepino[4,5-c]pyridazin-3(2H)-one 7,7-dioxide] | – | 0.63 | 0.23 | minimal effective dose [5]: 2.5 mg/kg |
| CCc1cc2c(s1)SCCc1cc(=O)n(-c3ccc(Cl)cc3)nc1-2 [Example 22, 2-(4-chlorophenyl)-9-ethyl-5,6-dihydrothieno[2',3':2,3]thiepino[4,5-c]pyridazin-3(2H)-one] | – | 1.8 | 0.49 | – |
| CCc1cc2c(s1)SCCc1cc(=O)n(-c3ccc(OC)cc3)nc1-2 [Example 58, 9-ethyl-2-(4-methoxyphenyl)-5,6-dihydrothieno[2',3':2,3]thiepino[4,5-c]pyridazin-3(2H)-one] | – | 0.56 | 0.4 | – |
| CC(O)c1cc2c(s1)S(=O)(=O)CCc1cc(=O)n(-c3ccc(Cl)cc3)nc1-2 (centres unmarked) [Example 50, 2-(4-chlorophenyl)-9-(1-hydroxyethyl)-5,6-dihydrothieno[2',3':2,3]thiepino[4,5-c]pyridazin-3(2H)-one 7,7-dioxide] | – | 0.97 | 0.87 | – |
| CCCc1cc2c(s1)[S+]([O-])CCc1cc(=O)n(-c3ccc(Cl)cc3)nc1-2 (centres unmarked) [Example 70, 2-(4-Chlorophenyl)-9-propyl-5,6-dihydrothienol[2',3':2,3]thiepino[4,5-c]pyridazin-3(2H)-one 7-oxide] | – | 0.62 | 0.62 | – |
| O=C1CC2CCSc3sccc3C2=NN1c1ccc(Cl)cc1 (centres unmarked) [Example 14] | 100 | – | – | Inhibitory rate (anti-MES) ([1]; 30 mg/kg p.o.): 40%; Inhibitory rate (anti-MES) ([1]; 100 mg/kg p.o.): 100% |
